US20220008411A1, “TOLL-LIKE RECEPTOR 7 OR 8 AGONIST-CHOLESTEROL COMPLEX AND METHOD OF PREPARING SAME” (RESEARCH & BUSINESS FOUNDATION SUNGKYUNKWAN UNIVERSITY, priority 2019, published 2022)

Tests used:
[1] = toxicity in vivo (serum cytokine, body weight); parameters: species or system C57BL/6 mouse; details: 25 μg/100 μL subcutaneous
Method: In addition, the collected blood was centrifuged (4° C., 13,000 rpm, 20 min) to separate serum and blood cells, and a cytokine amount was measured through ELISA using the serum.

[2] = tested on: bone marrow-derived dendritic cells (BMDCs) or bone marrow-derived macrophages (BMDMs); test: activation of immune cells, cleavable vs uncleavable complex (ELISA); type: cell-based; details: given as liposome, 24 hours
Method: Degree of activation of immune cells was confirmed using the cholesterol-resiquimod complex, in which cholesterol is not cleaved at a specific point of time as a control. […] In addition, a liquid culture was obtained, centrifuged at 490 g for 5 minutes, thereby obtaining only a supernatant, and ELISA was carried out using a BD OptEIA™ kit.

carboxylesterase = details: nanoliposome, 30 units of carboxylesterase, 37° C.
[3] = tested on: B16-OVA melanoma cell line; test: anticancer effect with OVA antigen in B16-OVA melanoma model; details: intratumoral injection on day 0, 3, 6 and 9
Method: More specifically, 5×10^5 cells of a B16-OVA cell line were subcutaneously injected into the right flank of a C57BL/6 mouse, and the time when a tumor size reached approximately 50 mm^3 was set to day 0, each of phosphate-buffered saline (control), an OVA antigen (OVA), resiquimod+OVA antigen (R848+OVA), and a nanoliposome including a cholesterol-resiquimod complex, +OVA antigen (Lipo(Chol-R848)+OVA) were administered into a mouse through intratumoral injection on day 0, 3, 6 and 9. 10 μg of the OVA antigen was administered, 25 μg of resiquimod was administered, and 25 μg (based on resiquimod) of the nanoliposome including the cholesterol-resiquimod complex was administered. In addition, a mouse survival rate and a cancer size were measured.

CCOCc1nc2c(N)nc3ccccc3c2n1CC(C)(C)O [resiquimod]
body weight [1]: dramatically changing a body weight | cytokine amount in serum [1]: rapidly increased in serum at an early stage

CCOCc1nc2c(NC(=O)OC3CCC4(C)C(=CCC5C4CCC4(C)C(C(C)CCCC(C)C)CCC54)C3)nc3ccccc3c2n1CC(C)(C)O (stereo not drawn) [Chol-R848, cholesterol-conjugated resiquimod]
activation of immune cells [2]: effectively activates immune cells | cholesterol cleavage by enzyme (carboxylesterase): cleaved

B1: OVA antigen: ovalbumin (OVA) antigen (protein, UniProt P01012 2-386, looked up)
Ovalbumin: GSIGAASMEFCFDVFKELKVHHANENIFYCPIAIMSALAMVYLGAKDSTRTQINKVVRFDKLPGFGDSIEAQCGTSVNVHSSLRDILNQITKPNDVYSFSLASRLYAEERYPILPEYLQCVKELYRGGLEPINFQTAADQARELINSWVESQTNGIIRNVLQPSSVDSQTAMVLVNAIVFKGLWEKAFKDEDTQAMPFRVTEQESKPVQMMYQIGLFRVASMASEKMKILELPFASGTMSMLVLLPDEVSGLEQLESIINFEKLTEWTSSNVMEERKIKVYLPRMKMEEKYNLTSVLMAMGITDVFSSSANLSGISSAESLKISQAVHAAHAEINEAGREVVGSAEAGVDAASVSEEFRADHPFLFCIKHIATNAVLFFGRCVSP
mouse survival [3]: no mouse surviving three weeks or more | cancer size ([3]; 10 μg OVA, 25 μg resiquimod basis): dramatically increased
